Laboratory results reported in patent US20050003388A1, “Calcium independent phospholipase A2upsilon polynucleotides and polypeptides and methods therefor” (priority 2000, published 2005).
pIC50: −log10 of the molar value.

What was measured:
human iPLA2γ = target: T1, human iPLA2γ (Homo sapiens, UniProt Q9NP80); experiment: Inhibition by BEL of phospholipase A2 activity of iPLA2γ in membrane fractions of infected Sf9 cells; assay type: biochemical
T1 sequence (Q9NP80 1-782): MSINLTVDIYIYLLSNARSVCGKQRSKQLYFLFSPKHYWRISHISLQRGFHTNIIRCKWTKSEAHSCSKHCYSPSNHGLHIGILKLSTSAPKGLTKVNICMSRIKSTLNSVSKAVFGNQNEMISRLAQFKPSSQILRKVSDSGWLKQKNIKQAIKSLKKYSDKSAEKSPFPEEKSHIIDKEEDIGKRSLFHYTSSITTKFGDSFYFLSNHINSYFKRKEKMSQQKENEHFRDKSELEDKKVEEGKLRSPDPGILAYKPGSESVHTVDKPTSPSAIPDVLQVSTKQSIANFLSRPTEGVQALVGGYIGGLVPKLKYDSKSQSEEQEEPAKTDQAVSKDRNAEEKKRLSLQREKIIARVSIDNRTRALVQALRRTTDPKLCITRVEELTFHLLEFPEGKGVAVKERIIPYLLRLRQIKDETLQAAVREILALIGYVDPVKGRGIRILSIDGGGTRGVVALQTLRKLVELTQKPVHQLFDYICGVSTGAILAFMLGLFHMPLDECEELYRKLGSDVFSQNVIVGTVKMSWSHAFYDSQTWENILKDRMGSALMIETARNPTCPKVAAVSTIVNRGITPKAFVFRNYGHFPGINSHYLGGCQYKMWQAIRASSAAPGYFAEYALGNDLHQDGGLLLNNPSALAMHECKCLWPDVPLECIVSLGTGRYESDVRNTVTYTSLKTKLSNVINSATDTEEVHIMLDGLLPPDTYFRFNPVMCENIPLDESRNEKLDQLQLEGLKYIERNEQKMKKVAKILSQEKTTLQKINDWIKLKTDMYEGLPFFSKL
Description: Briefly, Sf9 cells were infected with either wild-type baculovirus or baculovirus encoding human iPLA2γ, as described in Example 5. Cytosolic and membrane fractions of the infected Sf9 cells were prepared as described above. Phospholipase A2 activity was assessed as follows. Membrane fractions from control cells or cells expressing iPLA2γ were incubated with 40 μM L-α-1-palmitoyl-2-[1-^14C]oleoyl phosphatidylcholine in 100 mM Tris-Hac, pH 8.0, containing 1 mM EGTA at 37° C. Aliquots of the reaction were removed at the indicated times, and the amount of [1-^14C]oleic acid released was quantified as described above. Specifically, the release of sn-2-fatty acid from glycero-3-phosphocholine was determined as a function of time.
Briefly, Sf9 cells were infected with either wild-type baculovirus or baculovirus encoding human iPLA2γ, as described in Example 5. Membrane fractions of the infected Sf9 cells were prepared as described above, and then incubated for three minutes at room temperature in 100 mM Tris-HAc, pH 8.0, containing lmM EGTA, with varying concentrations of BEL, or ethanol vehicle, as indicated along the x-axis. L-α-1-palmitoyl-2-[1-^14C]oleoyl phosphatidylcholine (40 μM final concentration) in ethanol was then added to each reaction, followed by incubation at 37° C. for two minutes. Released [1-^14C]oleic acid was quantitated as described above. […]

[1] = system: myocardial cytosolic and membrane-associated iPLA2; conditions: irreversible mechanism-based inhibitor; Hazen et al. 1991, Zupan et al., Gross et al. 1993; cited from earlier work
[2] = target: T2, calcium-facilitated phospholipase A2γ (Homo sapiens, UniProt Q9UP65); conditions: at <50 μM [BEL]; Jenkins et al. 2002; cited from earlier work
T2 sequence (Q9UP65 1-541): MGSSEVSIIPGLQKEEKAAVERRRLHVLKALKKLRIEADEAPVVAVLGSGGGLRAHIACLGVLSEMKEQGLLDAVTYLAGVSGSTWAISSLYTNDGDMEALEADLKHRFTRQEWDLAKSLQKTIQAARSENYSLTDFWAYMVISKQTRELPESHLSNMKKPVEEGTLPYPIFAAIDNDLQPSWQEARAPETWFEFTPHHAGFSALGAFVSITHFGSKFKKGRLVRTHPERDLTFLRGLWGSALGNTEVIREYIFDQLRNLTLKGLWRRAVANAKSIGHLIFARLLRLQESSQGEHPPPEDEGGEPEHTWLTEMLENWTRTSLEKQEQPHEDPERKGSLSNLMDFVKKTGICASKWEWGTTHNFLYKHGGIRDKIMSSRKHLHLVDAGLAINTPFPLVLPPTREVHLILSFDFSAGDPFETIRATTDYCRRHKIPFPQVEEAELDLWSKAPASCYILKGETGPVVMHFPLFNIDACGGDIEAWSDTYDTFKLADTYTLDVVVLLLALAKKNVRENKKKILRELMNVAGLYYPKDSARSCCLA

## O=C1OC(=CBr)CCC1c1cccc2ccccc12 (stereo not shown) [BEL, (E)-6-(bromomethylene)-3-(1-napthalenyl)-2H-tetrahydropyran-2-one]
Human iPLA2γ
  pIC50: ~5.52
Human iPLA2γ; 5 μM BEL, preincubation of membranes for three minutes prior to addition of substrate (40 μM POPC), 37° C. two minutes
  inhibition at 5 µM: ~70%
[1]
  concentrations giving nearly complete inhibition of myocardial cytosolic membrane-associated iPLA2: 2 to 5 µM
[2]
  inhibition of calcium-facilitated phospholipase A2γ by BEL: not inhibited
